Assay results published in patent US9750934B2, “Treating bacteria with electric fields” (Novocure Limited, priority 2000, dated 2017).
Several values for one entry are separate records, joined by “and”; a condition that tells them apart may be missing. Equal values may be shown once.

Assays:
[1] = test system: P. aeruginosa strain PAO1; experiment: P. aeruginosa pulmonary infection in neutropenic ICR mice, ceftazidime alone or combined with electric fields / sham heat; assay type: in vivo, Pseudomonas aeruginosa; conditions: for Average lungs weight, weight in mg (±STDEV): end of 48 hour treatment
Procedure: In vivo experiments were also performed on Pseudomonas aeruginosa strain PAO1 in lungs of infected mice. For this example, bacteria were grown in LB media (1.0% Bacto tryptone, 0.5% Yeast extract, 1.0% NaCl (Frutarom, Haifa, Israel). Broth cultures of freshly plated bacteria were grown in 250 ml of liquid medium at 37° C. in an orbital shaker at 220 RPM (New Brunswick Scientific, N.J., USA) up to logarithmic phase, centrifuged and resuspended in saline containing 15% glycerol. Stocks were divided into aliquots of 50 μl each containing 2.17×10^7 Colony Forming Units (CFU)/ml and kept at −70° C. until use.
Experiments were conducted on 7- to 8-week-old (body weight 26-35 g) ICR female mice obtained from Harlan laboratories (Israel). Mice were housed under standard conditions of light and temperature, and were fed standard laboratory chow and water ad libitum. Electric fields were generated by 2 pairs of parallel metal electrodes, 15 mm-long; 3 mm-high. The front of the electrodes was completely insulated from the medium by a ceramic [(lead magnesium niobate-lead titanate (PMN-PT) (EDO, New York, N.Y.)] having a very high dielectric constant (∈>5000) such that their capacitance was about 10 nF each. The back of the electrodes was insulated by a 2.5 mm thick layer of 353ND medical grade epoxy (Epoxy Technology, Billerica, Mass., USA). Each electrode contained a thermistor placed within the epoxy directly on top of the ceramic in order to allow for constant monitoring of the electrodes' temperature.
Two control groups were set in each experiment: sham heat control, and non treated control (referred to as “Control”). Control electrodes of identical size and shape to the electric fields electrodes, were placed on mice of the two control groups. The Sham heat electrodes produced equal temperature changes to those produced by the field electrodes by means of a heating resistor incorporated within them, and the sham heat electrodes were placed in the same positions as the real electrodes. Except for the differences in the electrodes, the control mice and the sham heat treated mice were held in conditions identical to those of the electric fields treated mice.
Mice were rendered neutropenic (neutrophil counts, <100/mm^3), as described in Andes and Craig (1998), by two intraperitoneal injections of cyclophosphamide; four days before infection (150 mg/kg of body weight) and an additional injection one day before infection (100 mg/kg of body weight). The pulmonary infection model of Takeda et al., (2006) was used with minor modifications: Anesthetized ICR mice were challenged intra-nasally with 20 μL of saline containing various concentrations (10^4-10^7 CFU/ml) of P. aeruginosa strain PAO1. On the day of infection, immediately before use, frozen bacterial cultures were thawed and diluted in saline to the desired concentration. Anesthetized mice were challenged intra-nasally with the bacterial suspension. Mice were sacrificed at 0, 3, 6, 9, 24, and 48 hours after infection in order to determine CFU counts in their lungs. After skin disinfection with 70% alcohol, lungs from sacrificed mice were removed aseptically, photographed, weighted and their CFU content was determined.
Application of electric fields to the mouse torso was carried out as follows: 4 days before infection, the torso of anesthetized mice was shaved with electrical clippers and depilated using cold wax. Electric fields treatment was applied through four insulated electrodes placed around the mouse torso so as to generate fields of two perpendicular directions. Mice were placed inside the IVC cages and the electrodes were connected to the connection box. Application of electric fields began 3 hours after infection and was maintained for 48 h with two brief stops daily for monitoring the physical condition of the mice. After 48 h of treatment, the mice were sacrificed and bacterial numbers in lung were determined. […]

S. aureus [2] = experiment: MIC of antibiotic by serial twofold dilutions (NCCLS guidelines); assay type: cell-based, Staphylococcus aureus strain SH1000; conditions: Staphylococcus aureus; chloramphenicol alone; lowest concentration that completely inhibited growth; read-out: MIC against S. aureus
Procedure: Experiments were also performed on two different types of bacteria—Pseudomonas aeruginosa strain PAO1 and Staphylococcus aureus strain SH1000. All strains were grown in LB media (1.0% Bacto tryptone, 0.5% Yeast extract, 1% NaCl). Broth cultures of freshly plated bacteria strains were grown in 3 ml of liquid medium at 37° C. for 15 hours in an orbital shaker (220 RPM) and diluted in fresh LB broth to a predetermined absorbance at 595 nm which yielded the desired CFU per ml.
The combined effect of the electric fields and antibiotics was also tested. Chloramphenicol was obtained as powder and dissolved in EtOH (99%, Frutarom). All the stock solutions were filter sterilized and held at −20° C. until use. Serial twofold dilutions of each antibiotic agent were prepared following NCCLS guidelines. […] The MIC of electric fields was defined as the lowest intensity that inhibits growth by 80% or more compared with control, as determined using the microplate reader.

S. aureus [3] = experiment: Checkerboard test of the combined effect of electric fields and chloramphenicol on growth of S. aureus; assay type: cell-based, Staphylococcus aureus strain SH1000
Procedure: At the end of treatment, the cultures were stirred several times by up and down pipetting. Four aliquots of 250 μl were dispensed into a 96 MicroWells plate (Nunclon™ Δ, Nunc, Denmark) and the OD was determined spectrophotometrically with a microplate reader (Infinite 200, Tecan, Austria) at 750 nm. The optical densities (ODs) of the blanks, which consisted of uninoculated LB, were subtracted from the ODs of the inoculated plates. The percentage of growth for each well was calculated by dividing the OD of the wells by that of the control: (OD750mm of treated wells/OD750nm of the control well)×100.
Drug interactions with the electric fields were assessed according to the checkerboard method, with the following modifications: S. aureus inocula were diluted in LB medium containing the antibiotic to final concentration of 0.5 to 1.0×10^5 CFU/ml. The final concentrations of the chloramphenicol ranged from 0.125 to 16 μg/ml. Petri dishes containing the electric fields chamber were filled with 7 ml of the diluted cultures, and placed inside a pre cooled incubator. Fields were applied for 6 hours with the field direction alternating every 300 ms and the field intensities were varied by changing the incubator ambient temperature. Thus, lower ambient temperatures allowed for higher field intensities while maintaining the proper culture temperature of 37° C. Control plates containing the same electric fields chambers were placed in a pre-warmed incubator set at 37° C. At the end of the treatment, the cultures were stirred by pipetting the plate content up and down. Quadruplicates of 250 μl each were transferred to a 96 MicroWells plate (Nunc) and the OD was determined using Tecan microplate reader. Cultures were subjected to serial 10-fold dilution (up to 1/10,000) by adding 20 μl of sample to 180 μl of saline solution (0.85% NaCl), from which 80 μl aliquots were plated on LB agar plates (1.5% agar, 1.0% Bacto tryptone, 1% NaCl, 0.5% Yeast extract). CFU counts were performed after overnight incubation at 37° C.
To evaluate the effect of the combinations, the fractional inhibitory concentration (FIC) was calculated for the electric fields and for each antibiotic. The following formulas were used to calculate the FIC index: FIC of electric fields=MIC of electric fields in combination/MIC of electric fields alone, FIC of drug B=MIC of drug B in combination/MIC of drug B alone, and FIC index=FIC of electric fields+FIC of drug B. Synergy was defined as an FIC index of ≦0.5. Indifference was defined as an FIC index of >0.5 but of ≦4. Antagonism was defined as an FIC index of >4.

## CC(C)(O/N=C(\C(=O)N[C@@H]1C(=O)N2C(C(=O)[O-])=C(C[n+]3ccccc3)CS[C@H]12)c1csc(N)n1)C(=O)O [ceftazidime, Ceftazidime]
[1]; 48 h combined treatment of electric fields and ceftazidime
  reduction in the lung CFU content compared to the antibiotic-only treated control: 1.5 log
[1]; ceftazidime 5 mg/kg i.p. twice daily + electric fields, 48 h
  Log CFU (T48) ± STDEV, number of bacteria in the lungs of infected mice: 5.0 ± 1.7 Log CFU
[1]; ceftazidime 5 mg/kg i.p. twice daily + sham heat, 48 h
  Log CFU (T48) ± STDEV, number of bacteria in the lungs of infected mice: 6.0 ± 2.3 Log CFU
[1]; ceftazidime 5 mg/kg i.p. twice daily alone (control of the with-ceftazidime groups), 48 h
  Log CFU (T48) ± STDEV, number of bacteria in the lungs of infected mice: 6.5 ± 2.5 Log CFU
[1]; ceftazidime 10 mg/kg BW/day alone
  growth reduction compared to the non treated lungs: ~2 logs
[1]; ceftazidime + electric fields, 48 h
  log CFU/lung (T48/T0) (±STDEV), P. aeruginosa growth in mice lungs: 0.4 log CFU/lung and 0.4 ± 1.7 log CFU/lung
[1]; ceftazidime + electric fields
  Average lungs weight, weight in mg (±STDEV): 244 ± 31 mg
[1]; ceftazidime + sham heat, 48 h
  log CFU/lung (T48/T0) (±STDEV), P. aeruginosa growth in mice lungs: 1.3 ± 2.2 log CFU/lung
[1]; ceftazidime + sham heat
  Average lungs weight, weight in mg (±STDEV): 275 ± 60 mg
[1]; ceftazidime alone (control), 10 mg/kg BW/day, 48 h, 10 mg/kg/day
  log CFU/lung (T48/T0) (±STDEV), P. aeruginosa growth in mice lungs: 1.9 log CFU/lung and 1.9 ± 2.5 log CFU/lung
[1]; ceftazidime alone (control)
  Average lungs weight, weight in mg (±STDEV): 310 ± 77 mg
[1]; combined treatment of sham heat and ceftazidime, 48 h
  lung CFU count reduction compared to the control: did not result in a significant count reduction

## O=C(N[C@H](CO)[C@H](O)c1ccc([N+](=O)[O-])cc1)C(Cl)Cl [chloramphenicol, Chloramphenicol]
S. aureus [2]
  MIC: 4 µg/mL
S. aureus [3]; S. aureus, 10 MHz fields, 6 hours
  combined effect of electric fields and chloramphenicol: additive effect
S. aureus [3]; chloramphenicol 0.25 μg/ml, 0 V/cm, 6 hours
  growth of S. aureus relative to control: 66%
S. aureus [3]; chloramphenicol 0.25 μg/ml, 0.5-2.0 V/cm 10 MHz fields, 6 hours
  growth of S. aureus relative to control: 39%
S. aureus [3]; chloramphenicol 0.25 μg/ml, 2.0-2.5 V/cm 10 MHz fields, 6 hours
  growth of S. aureus relative to control: 51%
S. aureus [3]; chloramphenicol 0.25 μg/ml, 3.5-4.5 V/cm 10 MHz fields, 6 hours
  growth of S. aureus relative to control: 13%
S. aureus [3]; chloramphenicol 0.5 μg/ml, 0 V/cm, 6 hours
  growth of S. aureus relative to control: 45%
S. aureus [3]; chloramphenicol 0.5 μg/ml, 0.5-2.0 V/cm 10 MHz fields, 6 hours
  growth of S. aureus relative to control: 16%
S. aureus [3]; chloramphenicol 0.5 μg/ml, 2.0-2.5 V/cm 10 MHz fields, 6 hours
  growth of S. aureus relative to control: 20%
S. aureus [3]; chloramphenicol 0.5 μg/ml, 3.5-4.5 V/cm 10 MHz fields, 6 hours
  growth of S. aureus relative to control: 21%
S. aureus [3]; chloramphenicol 1 μg/ml, 0 V/cm, 6 hours
  growth of S. aureus relative to control: 30%
S. aureus [3]; chloramphenicol 1 μg/ml, 0.5-2.0 V/cm 10 MHz fields, 6 hours
  growth of S. aureus relative to control: 26%
S. aureus [3]; chloramphenicol 1 μg/ml, 2.0-2.5 V/cm 10 MHz fields, 6 hours
  growth of S. aureus relative to control: 6%
S. aureus [3]; chloramphenicol 1 μg/ml, 3.5-4.5 V/cm 10 MHz fields, 6 hours
  growth of S. aureus relative to control: 2%
S. aureus [3]; chloramphenicol 4 μg/ml, 0 V/cm, 6 hours
  growth of S. aureus relative to control: 7%
S. aureus [3]; chloramphenicol 4 μg/ml, 0.5-2.0 V/cm 10 MHz fields, 6 hours
  growth of S. aureus relative to control: 13%
S. aureus [3]; chloramphenicol 4 μg/ml, 2.0-2.5 V/cm 10 MHz fields, 6 hours
  growth of S. aureus relative to control: 2%
S. aureus [3]; chloramphenicol 4 μg/ml, 3.5-4.5 V/cm 10 MHz fields, 6 hours
  growth of S. aureus relative to control: 0%
S. aureus [3]; electric fields + chloramphenicol, based on OD measurements
  FIC index: 0.625
S. aureus [3]; in the presence of 4 V/cm 10 MHz electric fields applied for 6 hours, field direction alternating every 300 ms
  concentration sufficient to produce complete inhibition of the growth of S. aureus in combination with electric fields: 1 µg/mL
